Assay [1] deals with T1, HGSNAT (heparan sulfate acetyl-CoA: α-glucosaminide N-acetyltransferase), HGSNAT-TAP (Homo sapiens, UniProt Q68CP4).
T1 construct: transient expression in COS-7 cells; homogenate or streptavidin-resin partially purified; ~77 kDa
T1 sequence (Q68CP4 1-663): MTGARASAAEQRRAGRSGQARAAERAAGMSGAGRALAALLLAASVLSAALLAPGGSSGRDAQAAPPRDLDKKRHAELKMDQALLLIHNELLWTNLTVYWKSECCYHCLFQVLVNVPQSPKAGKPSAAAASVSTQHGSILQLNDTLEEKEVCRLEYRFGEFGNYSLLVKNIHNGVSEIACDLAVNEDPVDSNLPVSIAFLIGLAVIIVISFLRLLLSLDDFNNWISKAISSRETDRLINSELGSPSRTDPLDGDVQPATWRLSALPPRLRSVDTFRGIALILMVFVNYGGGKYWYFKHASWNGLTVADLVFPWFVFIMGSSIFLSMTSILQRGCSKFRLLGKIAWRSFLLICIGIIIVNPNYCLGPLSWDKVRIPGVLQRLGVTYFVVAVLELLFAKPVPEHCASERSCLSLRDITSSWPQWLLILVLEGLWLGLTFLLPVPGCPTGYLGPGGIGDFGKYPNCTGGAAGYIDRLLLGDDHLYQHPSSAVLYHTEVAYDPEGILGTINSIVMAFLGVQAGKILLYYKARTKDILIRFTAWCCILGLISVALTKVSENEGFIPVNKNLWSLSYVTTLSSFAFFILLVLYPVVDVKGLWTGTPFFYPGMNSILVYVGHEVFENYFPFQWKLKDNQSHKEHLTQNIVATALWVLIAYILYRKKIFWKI
Briefly: fluorogenic N-acetyltransferase assay, Lineweaver-Burk plot, partially purified (streptavidin resin) enzyme. The format is biochemical. The conditions noted are these: acetyl-CoA co-substrate, 4MU-βGlcN 0.05-2.0 mM, McIlvain buffer pH 5.7, 37°C, 18 h.

For assay [2], the target named is T1, HGSNAT (heparan sulfate acetyl-CoA: α-glucosaminide N-acetyltransferase), HGSNAT-TAP. The experiment in a line: fluorogenic N-acetyltransferase assay, Dixon plot, homogenate of transfected COS-7 cells. The format is biochemical. Particulars: competitive; 4MU-βGlcN 0.0375-1.5 mM, 2 mM acetyl-CoA, McIlvain buffer pH 5.7, 37°C, 3 h.

Structures can show the parent of a compound that is named as a salt.

The values below come from PMC2757673, “Protein Misfolding as an Underlying Molecular Defect in Mucopolysaccharidosis III Type C” (PLoS ONE, 2009).

Regarding `Cc1cc(=O)oc2cc(O[C@@H]3O[C@H](CO)[C@@H](O)[C@H](O)[C@H]3N)ccc12` [4MU-βGlcN, 4-methylumbelliferyl β-D-glucosaminide], in assay [1], the KM entry is “Lineweaver-Burk plot of substrate dependance for partially purified HGSNAT wild-type and P237Q and V481L mutants”.

`N[C@H]1C(O)O[C@H](CO)[C@@H](O)[C@@H]1O` (stereo partly drawn) [D-(+)-glucosamine hydrochloride]: the Ki (as a rule, the equilibrium dissociation constant of an inhibitor or competing ligand from its target) in assay [2] stood at 280 µM.
